# Values quoted from earlier work as cited in patent publication US20190015446A1, “MEDICINAL COMPOSITION FOR IMPROVING PROGNOSIS AFTER RESTART OF PATIENT'S OWN HEARTBEAT” (KEIO UNIVERSITY, priority 2015, published 2019).
# Tests used:
# healthy persons = conditions: hydrogen gas 49%
# [1] = system: rats after cardiopulmonary arrest resuscitation; conditions: inhalation from before to immediately after return of spontaneous circulation
smiles,measurement,setting,value
[HH] [hydrogen gas],Adverse reaction on inhalation,healthy persons,no adverse reaction
same,Brain and heart functions and vital prognosis after cardiopulmonary arrest resuscitation,[1],can improve brain and heart functions and vital prognosis
